Patent publication US12171753B2, “Crystalline forms of ALDH2 modulators” (SOPHROSYNE PHARMACEUTICALS LIMITED, priority 2021, dated 2024)
One block for each compound: values may come before it.

Experiments:
[1] = tested on: subject suffering from alcohol use disorder; assay: Pharmaceutical composition administered to a subject suffering from alcohol use disorder; format: in vivo
Protocol: (§1) [drawing 31] and trifluorotriiodobenzene is administered to a subject suffering from alcohol use disorder. […] The subject is also found to have less cravings on the Visual Analogue Scale of Craving, which has 4 questions to assess domains of alcohol craving: the intention to drink, loss of control, relief craving, and urge intensity with a 0-20 point visual analogue scale for each item, with 0 indicating no craving and 20 indicating severe craving.
as §1, with “32]” for “31] and trifluorotriiodobenzene”

[2] = Polymorphic screen: suspending 50 mg of compound in solvent, suspension outcome; format: physicochemical; details: left overnight
Protocol: The polymorphic screening of the compound of Formula IV-I was performed by suspending 50 mg of the compound of Formula IV-I in each of the solvents as described in Table 12 at a volume of 1.5 mL for all but water (1 mL) in a separate vial. The vials were sealed and the suspensions were left overnight. In the following day, the vials with the compound of Formula IV-I dissolved were opened and the solutions were left to evaporate at room temperature. The solid materials were collected after the complete evaporation of the solvent. In the vials where the compound of Formula IV-I was not fully dissolved, the mixtures were left to slurrying for another 96 h. The slurries were filtered and the obtained solids were analyzed.

SMILES: C[S+]([O-])C(=O)N1CCC(O)CC1 (centres unmarked) [drawing 31]
Cravings on the Visual Analogue Scale of Craving ([1]; 4 questions, 0-20 point scale per item): less cravings | Craving scale after 2 weeks of treatment ([1]; after 2 weeks of being treated): reduction in the craving scale | Alcohol consumed over a 90 day period ([1]; compared to a 90 day period prior to treatment): consume less alcohol | Percentage of no heavy drinking days ([1]; during the period of treatment (e.g., 1 to 13 weeks)): increase in the percentage of no heavy drinking days | Number of drinks consumed in the natural environment ([1]; first 13 days of medication period, timeline follow-back interview): reduction in the number of drinks | Alcohol drinking of the treated subject ([1]; subject with alcohol use disorder): drink less or no alcohol

Suspension outcome ([2]; 50 mg in 1 mL H2O): Dissolved | Suspension outcome ([2]; 50 mg in 1.5 mL 1-propanol): Slurry | Suspension outcome ([2]; 50 mg in 1.5 mL 2-propanol): Slurry | Suspension outcome ([2]; 50 mg in 1.5 mL Acetone): Slurry | Suspension outcome ([2]; 50 mg in 1.5 mL Acetonitrile): Slurry | Suspension outcome ([2]; 50 mg in 1.5 mL Chloroform): Dissolved | Suspension outcome ([2]; 50 mg in 1.5 mL Cyclohexane): Slurry | Suspension outcome ([2]; 50 mg in 1.5 mL Dichloromethane): Dissolved | Suspension outcome ([2]; 50 mg in 1.5 mL EtOAc): Slurry | Suspension outcome ([2]; 50 mg in 1.5 mL EtOH): Dissolved | Suspension outcome ([2]; 50 mg in 1.5 mL Ethyl ether): Slurry | Suspension outcome ([2]; 50 mg in 1.5 mL Isopropyl acetate): Slurry | Suspension outcome ([2]; 50 mg in 1.5 mL MeOH): Dissolved | Suspension outcome ([2]; 50 mg in 1.5 mL Methyl acetate): Slurry | Suspension outcome ([2]; 50 mg in 1.5 mL Nitromethane): Dissolved | Suspension outcome ([2]; 50 mg in 1.5 mL Octane): Slurry | Suspension outcome ([2]; 50 mg in 1.5 mL THF): Slurry | Suspension outcome ([2]; 50 mg in 1.5 mL Toluene): Slurry | Suspension outcome ([2]; 50 mg in 1.5 mL n-hexane): Slurry | Suspension outcome ([2]; 50 mg in 1.5 mL n-pentane): Slurry
SMILES: C[S+]([O-])C(=O)N1CCC(O)CC1 (centres unmarked) [Formula IV-I, 1-S-Methyl 1-S-oxo 4-hydroxy-1-piperidinecarbothioate]
